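A five-concentration, 48-hour dose response in 96-well plates underlies each endpoint, interpolated linearly between surrounding concentrations. At the GI50, growth is halved.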 The source made the active and inactive calls. Rule as the data show it: active = GI50 up to about 1.1 µM and inactive = higher.
Assays:
Test in all cases: NCI anticancer screen, dose series, 48 h
786-0 = tested on: 786-0
A498 = tested on: A498
A549 = tested on: A549
ACHN = tested on: ACHN
CAKI-1 = tested on: CAKI-1
CCRF-CEM = tested on: CCRF-CEM
COLO 205 = tested on: COLO 205
DLD-1 = tested on: DLD-1
DMS-273 = tested on: DMS-273
EKVX = tested on: EKVX
HCC 2998 = tested on: HCC 2998
HCT-116 = tested on: HCT-116
HCT-15 = tested on: HCT-15
HL-60 = tested on: HL-60
HOP-18 = tested on: HOP-18
HOP-62 = tested on: HOP-62
HOP-92 = tested on: HOP-92
HT-29 = tested on: HT-29
IGROV-1 = tested on: IGROV-1
K562 = tested on: K562
KM-20L2 = tested on: KM-20L2
KM12 = tested on: KM12
LOX IMVI = tested on: LOX IMVI
LXFL 529 = tested on: LXFL 529
M14 = tested on: M14
M19-MEL = tested on: M19-MEL
Malme-3M = tested on: Malme-3M
NCI-H23 = tested on: NCI-H23
NCI-H460 = tested on: NCI-H460
NCI-H522 = tested on: NCI-H522
OVCAR-3 = tested on: OVCAR-3
OVCAR-5 = tested on: OVCAR-5
OVCAR-8 = tested on: OVCAR-8
RPMI-8226 = tested on: RPMI-8226
SF-268 = tested on: SF-268
SF-295 = tested on: SF-295
SF-539 = tested on: SF-539
SK-MEL-28 = tested on: SK-MEL-28
SK-MEL-2 = tested on: SK-MEL-2
SK-MEL-5 = tested on: SK-MEL-5
SK-OV-3 = tested on: SK-OV-3
SN12C = tested on: SN12C
SNB-19 = tested on: SNB-19
SNB-75 = tested on: SNB-75
SNB-78 = tested on: SNB-78
SR = tested on: SR
SW-620 = tested on: SW-620
TK-10 = tested on: TK-10
U-251 = tested on: U-251
UACC-257 = tested on: UACC-257
UACC-62 = tested on: UACC-62
UO-31 = tested on: UO-31

Compound: COc1ccc(N2C(=O)C(N3C(=O)C=CC3=O)C2C=O)cc1 (configuration not stated)
- GI50 (786-0): > 100 µM (inactive)
- GI50 (A498): > 100 µM (inactive)
- GI50 (A549): > 100 µM (inactive)
- GI50 (ACHN): > 100 µM (inactive)
- GI50 (CAKI-1): > 100 µM (inactive)
- GI50 (CCRF-CEM): > 100 µM (inactive)
- GI50 (COLO 205): > 100 µM (inactive)
- GI50 (DLD-1): > 100 µM (inactive)
- GI50 (DMS-273): > 100 µM (inactive)
- GI50 (EKVX): > 100 µM (inactive)
- GI50 (HCC 2998): > 100 µM (inactive)
- GI50 (HCT-116): > 100 µM (inactive)
- GI50 (HCT-15): > 100 µM
- GI50 (HL-60): > 100 µM (inactive)
- GI50 (HOP-18): > 100 µM (inactive)
- GI50 (HOP-62): > 100 µM (inactive)
- GI50 (HOP-92): > 100 µM (inactive)
- GI50 (HT-29): > 100 µM (inactive)
- GI50 (IGROV-1): > 100 µM (inactive)
- GI50 (K562): > 100 µM (inactive)
- GI50 (KM-20L2): > 100 µM (inactive)
- GI50 (KM12): > 100 µM (inactive)
- GI50 (LOX IMVI): > 100 µM (inactive)
- GI50 (LXFL 529): > 100 µM (inactive)
- GI50 (M14): > 100 µM (inactive)
- GI50 (M19-MEL): > 100 µM (inactive)
- GI50 (Malme-3M): > 100 µM (inactive)
- GI50 (NCI-H23): > 100 µM (inactive)
- GI50 (NCI-H460): > 100 µM (inactive)
- GI50 (NCI-H522): > 100 µM (inactive)
- GI50 (OVCAR-3): > 100 µM (inactive)
- GI50 (OVCAR-5): > 100 µM (inactive)
- GI50 (OVCAR-8): > 100 µM (inactive)
- GI50 (RPMI-8226): > 100 µM (inactive)
- GI50 (SF-268): > 100 µM (inactive)
- GI50 (SF-295): > 100 µM (inactive)
- GI50 (SF-539): > 100 µM (inactive)
- GI50 (SK-MEL-28): > 100 µM (inactive)
- GI50 (SK-MEL-2): > 100 µM (inactive)
- GI50 (SK-MEL-5): > 100 µM (inactive)
- GI50 (SK-OV-3): > 100 µM (inactive)
- GI50 (SN12C): > 100 µM (inactive)
- GI50 (SNB-19): > 100 µM (inactive)
- GI50 (SNB-75): > 100 µM (inactive)
- GI50 (SNB-78): > 100 µM (inactive)
- GI50 (SR): > 100 µM (inactive)
- GI50 (SW-620): > 100 µM (inactive)
- GI50 (TK-10): > 100 µM (inactive)
- GI50 (U-251): > 100 µM (inactive)
- GI50 (UACC-257): > 100 µM (inactive)
- GI50 (UACC-62): > 100 µM (inactive)
- GI50 (UO-31): > 100 µM (inactive)

From ChEMBL document CHEMBL1201862, “PubChem BioAssay data set” (2004)
